According to ChEMBL document CHEMBL1141939, “Structure-activity relationship studies on a series of cyclohexylpiperazines bearing a phanylacetamide as ligands of the human melanocortin-4 receptor” (Bioorg Med Chem Lett, 2005):

What was measured:
[1] = target: T1, Melanocortin receptor 4 (Homo sapiens, UniProt P32245); assay: biochemical; format: cell-based, HEK293
Description: Displacement of [125I]NDP-MSH from human MC4R expressed in HEK293 cells

[2] = target: T1, Melanocortin receptor 4; assay: cAMP stimulation in HEK293 cells transfected with human MC4R; format: functional, cell-based

T1 sequence (P32245 whole entry): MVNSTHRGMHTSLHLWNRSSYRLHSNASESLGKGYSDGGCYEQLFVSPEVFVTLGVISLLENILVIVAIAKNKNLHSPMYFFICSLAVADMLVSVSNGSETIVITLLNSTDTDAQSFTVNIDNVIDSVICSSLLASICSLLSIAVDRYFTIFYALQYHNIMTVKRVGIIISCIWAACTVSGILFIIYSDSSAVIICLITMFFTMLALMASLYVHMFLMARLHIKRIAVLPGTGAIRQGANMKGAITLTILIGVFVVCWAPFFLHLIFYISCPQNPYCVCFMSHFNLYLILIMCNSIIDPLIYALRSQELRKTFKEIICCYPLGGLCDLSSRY

Row | Ki [1] [nM] | EC50 [2] [nM] | Emax [2] [%] | Compound
1 | 260 | 810 | 51 | NC1(C(=O)N[C@H](Cc2ccc(Cl)cc2)C(=O)N2CCN(C3(CNC(=O)Cc4ccccc4)CCCCC3)CC2)CCc2ccccc21 (stereo partly specified)
2 | 210 |  |  | CCCC(=O)N[C@H](Cc1ccc(Cl)cc1)C(=O)N1CCN(C2(CNC(=O)Cc3ccccc3)CCCCC2)CC1
3 | 99 | 440 | 43 | O=C(Cc1ccccc1)NCC1(N2CCN(C(=O)[C@@H](Cc3ccc(Cl)cc3)NC(=O)C3NCc4ccccc43)CC2)CCCCC1 (stereo partly specified)
4 | 300 |  |  | CC(C)C(=O)N[C@H](Cc1ccc(Cl)cc1)C(=O)N1CCN(C2(CNC(=O)Cc3ccccc3)CCCCC2)CC1
5 | 150 |  |  | CCCCC(=O)N[C@H](Cc1ccc(Cl)cc1)C(=O)N1CCN(C2(CNC(=O)Cc3ccccc3)CCCCC2)CC1
6 | 110 |  |  | CC(=O)N[C@H](Cc1ccc(Cl)cc1)C(=O)N1CCN(C2(CNC(=O)Cc3ccccc3)CCCCC2)CC1
7 | 79 | 530 | 26 | NC(C(=O)N[C@H](Cc1ccc(Cl)cc1)C(=O)N1CCN(C2(CNC(=O)Cc3ccccc3)CCCCC2)CC1)c1ccccc1 (stereo partly specified)
8 | 180 |  |  | O=C(Cc1ccccc1)NCC1(N2CCN(C(=O)[C@@H](Cc3ccc(Cl)cc3)NC(=O)Cc3ccccc3F)CC2)CCCCC1
9 | 210 | 360 | 22 | O=C(Cc1ccccc1)NCC1(N2CCN(C(=O)[C@@H](Cc3ccc(Cl)cc3)NC(=O)C3Cc4ccccc4N3)CC2)CCCCC1 (stereo partly specified)
10 | 120 | 590 | 54 | NC(Cc1ccncc1)C(=O)N[C@H](Cc1ccc(Cl)cc1)C(=O)N1CCN(C2(CNC(=O)Cc3ccccc3)CCCCC2)CC1 (stereo partly specified)
11 | 42 | 270 | 61 | NC(CC(=O)N[C@H](Cc1ccc(Cl)cc1)C(=O)N1CCN(C2(CNC(=O)Cc3ccccc3)CCCCC2)CC1)c1ccccc1 (stereo partly specified)

More lines, now with the values behind:

Row | Compound | Ki [1] [nM] | EC50 [2] [nM] | Emax [2] [%]
12 | COCC(=O)N[C@H](Cc1ccc(Cl)cc1)C(=O)N1CCN(C2(CNC(=O)Cc3ccccc3)CCCCC2)CC1 | 170 |  | 
13 | O=C(Cc1ccccc1)NCC1(N2CCN(C(=O)[C@@H](Cc3ccc(Cl)cc3)NC(=O)C3CC3)CC2)CCCCC1 | 130 |  | 
14 | O=C(Cc1ccccc1)NCC1(N2CCN(C(=O)[C@@H](Cc3ccc(Cl)cc3)NC(=O)c3ccccc3)CC2)CCCCC1 | 84 |  | 
15 | CC(C)COC(=O)N[C@H](Cc1ccc(Cl)cc1)C(=O)N1CCN(C2(CNC(=O)Cc3ccccc3)CCCCC2)CC1 | 280 |  | 
16 | O=C(Cc1ccccc1)NCC1(N2CCN(C(=O)[C@@H](Cc3ccc(Cl)cc3)NC(=O)C3CCCC3)CC2)CCCCC1 | 230 |  | 
17 | O=C(Cc1ccccc1)NCC1(N2CCN(C(=O)[C@@H](Cc3ccc(Cl)cc3)NC(=O)c3ccco3)CC2)CCCCC1 | 100 |  | 
18 | CC(C)CC(=O)N[C@H](Cc1ccc(Cl)cc1)C(=O)N1CCN(C2(CNC(=O)Cc3ccccc3)CCCCC2)CC1 | 270 |  | 
19 | CCC(CC)C(=O)N[C@H](Cc1ccc(Cl)cc1)C(=O)N1CCN(C2(CNC(=O)Cc3ccccc3)CCCCC2)CC1 | 1000 |  | 
20 | O=C(Cc1ccccc1)NCC1(N2CCN(C(=O)[C@@H](Cc3ccc(Cl)cc3)NC(=O)Cc3cccs3)CC2)CCCCC1 | 80 |  | 
21 | CC(C)(C)CC(=O)N[C@H](Cc1ccc(Cl)cc1)C(=O)N1CCN(C2(CNC(=O)Cc3ccccc3)CCCCC2)CC1 | 750 | 570 | 43
22 | NC(Cc1ccccc1)C(=O)N[C@H](Cc1ccc(Cl)cc1)C(=O)N1CCN(C2(CNC(=O)Cc3ccccc3)CCCCC2)CC1 (stereo partly specified) | 130 | 420 | 62
23 | O=C(Cc1ccccc1)NCC1(N2CCN(C(=O)[C@@H](Cc3ccc(Cl)cc3)NC(=O)[C@H]3Cc4ccccc4CN3)CC2)CCCCC1 | 16 | 33 | 96
24 | O=C(Cc1ccccc1)NCC1(N2CCN(C(=O)[C@@H](Cc3ccc(Cl)cc3)NC(=O)c3cccnc3)CC2)CCCCC1 | 60 |  | 
25 | NC1(C(=O)N[C@H](Cc2ccc(Cl)cc2)C(=O)N2CCN(C3(CNC(=O)Cc4ccccc4)CCCCC3)CC2)Cc2ccccc2C1 | 140 | 280 | 49
26 | O=C(Cc1ccccc1)NCC1(N2CCN(C(=O)[C@@H](Cc3ccc(Cl)cc3)NC(=O)C3CCC3)CC2)CCCCC1 | 140 |  | 
27 | O=C(Cc1ccccc1)NCC1(N2CCN(C(=O)[C@@H](Cc3ccc(Cl)cc3)NC(=O)c3cnc4ccccc4c3)CC2)CCCCC1 | 61 |  | 
28 | NC1(C(=O)N[C@H](Cc2ccc(Cl)cc2)C(=O)N2CCN(C3(CNC(=O)Cc4ccccc4)CCCCC3)CC2)CCc2ccccc2C1 (stereo partly specified) | 82 | 160 | 87
29 | CN(C)CC(=O)N[C@H](Cc1ccc(Cl)cc1)C(=O)N1CCN(C2(CNC(=O)Cc3ccccc3)CCCCC2)CC1 | 100 | 300 | 63
30 | CCC(=O)N[C@H](Cc1ccc(Cl)cc1)C(=O)N1CCN(C2(CNC(=O)Cc3ccccc3)CCCCC2)CC1 | 160 |  | 
31 | O=C(Cc1ccccc1)NCC1(N2CCN(C(=O)[C@@H](Cc3ccc(Cl)cc3)NC(=O)c3ccc(F)cc3)CC2)CCCCC1 | 97 |  | 
32 | O=C(Cc1ccccc1)NCC1(N2CCN(C(=O)[C@@H](Cc3ccc(Cl)cc3)NC(=O)[C@@H]3Cc4ccccc4CN3)CC2)CCCCC1 | 11 | 46 | 76
33 | O=C(Cc1ccccc1)NCC1(N2CCN(C(=O)[C@@H](Cc3ccc(Cl)cc3)NC(=O)CC3Cc4ccccc4CN3)CC2)CCCCC1 (stereo partly specified) | 16 | 37 | 96
